Activity calls are given as the source filed them. No cut-off for these calls is given here.
How the values were obtained:
[1] = Inhibition of RANKL-induced osteoclastogenesis in mouse RAW 264 cells at 20 uM […] by TRAP staining based assay relative to control; format: functional; conditions: RAW264.7
RAW 264 [2] = assay: Cytotoxicity against mouse RAW 264 cells assessed as reduction in cell viability at upto 160 uM by MTT assay; format: functional, cell-based
RAW 264 [3] = assay: Inhibition of RANKL-induced osteoclastogenesis in mouse RAW 264 cells at 1 nM […] by TRAP staining based assay; format: functional, cell-based

| SMILES | inhibition at 20 µM [1] | Activity (RAW 264 [2]) | inhibition (RAW 264 [3]) |
| --- | --- | --- | --- |
| C/C=C/C=C/C(=O)O[C@H]1CC/C=C/[C@H](O)[C@H](O)[C@@H](CCC)OC1=O [PINOLIDOXIN] | 57% | inactive |  |
| CC1=C(/C=C/C(C)=C/C=C/C(C)=C/C(=O)O)C(C)(C)CCC1 |  |  | Active |

— ChEMBL document CHEMBL6071173, “Machine Learning Accelerates Screening of Osteoclast Differentiation Inhibitors from Natural Products” (2024)
